Results taken from patent publication US20260174766A1, “COMBINATION OF MENIN INHIBITOR(S) AND IMMUNOPROTEASOME INHIBITOR(S) FOR TREATMENT OF LEUKEMIA” (Medizinische Hochschule Hannover, priority 2022, published 2026).

Assays:
[1] = test system: normal hematopoietic cells; assay: Normal hematopoiesis: competitive transplantation after in vivo PR-957 treatment; set-up: species or system mouse
[2] = test system: MLLr leukemic cells (MLL-AF9 and MLL-AF4 PDX); assay: Patient derived xenografts (MLL-AF9, MLL-AF4) in NSGW41 mice treated with PR-957; format: in vivo, mouse
Text: NOD.Cg-Prkdc^scid Il2rg^tm1Wjl Tg(CMV-IL3, CSF2, KITLG) 1Eav/MloySzJ (NSGS), NOD.Cg-Prkdc^scid Il2rg^tm1Wjl/SzJ (NSG) or NOD.Cg-Prkdc^scid Il2rg^tm1Wjl/RJ (NXG) were obtained from The Jackson Laboratory (Bar Harbor, ME, USA). 8-12-weeks old adult mice (male and female) were irradiated with 2 Gy (single dose) before transplantation. 1×10^5 MOLM-13, ML-2 or MV-4; 11 cells transduced with either of two PSMB8/LMP7 shRNAs or non-targeting control; with a pLEX vector containing the sequence of BASP1 or an empty vector; or treated ex vivo with the indicated inhibitors were injected intravenously via the tail vein. For patient derived xenograft experiments (PDX) of human MLLr leukemia we used an improved model for human HSC transplantation and analysis, that has been developed from immune-deficient mouse strains containing Kit mutations: NOD.Cg-^KitW-41J Prkdc^scid Il2rg^tm1Wjl/WaskJ (NSGW41) (Cosgun et al., 2014). These mice can be engrafted without prior conditioning and therefore maintain an intact niche and microenvironment. Human myeloid engraftment (hCD45+ CD13+) was analyzed by flow cytometry.
In order to assess for the functional relevance of immunoproteasome component LMP7/PSMB8 in human AML, genetic inactivation of LMP7/PSMB8 by RNAi was performed with two independent shRNAs against LMP7/PSMB8 (shPSMB8-3 and shPSMB8-2) compared to non-targeting control (shNT) in MLLr cell lines. […] However, induction of apoptosis could only be detected in less than 40% of cells with no significant variability between MLLr cell lines and the individual shRNAs. Efficient LMP7/PSMB8 depletion was confirmed by Western blotting (FIG. 1E). […] Following xenotransplantation, the relative abundance of human AML cells in the murine peripheral blood was measured over time by flow cytometry, and PR-957 treatment was initiated once hCD45+ AML cells constituted 0.1%-0.5% of PB cells. […]

COc1ccc(C[C@H](NC(=O)[C@H](C)NC(=O)CN2CCOCC2)C(=O)N[C@@H](Cc2ccccc2)C(=O)[C@]2(C)CO2)cc1 [PR-957, (2S)-3-(4-methoxyphenyl)-N-[(2S)-1-[(2S)-2-methyloxiran-2-yl]-1-oxo-3-phenylpropan-2-yl]-2-[[(2S)-2-[(2-morpholin-4-ylacetyl)amino]propanoyl]amino]propanamide]
hematopoietic stem- and progenitor cell abundance ([1]; PR-957 for 3 weeks (10 mg/kg, 5 days/week), FIGS. 2K,L,M): did not show any changes
stem- and progenitor cell chimerism in secondary recipients ([1]; previous PR-957 treatment, FIGS. 2O,P,Q): not affected
peripheral blood chimerism in secondary recipient mice ([1]; until week 16, FIG. 2N): no changes
antileukemic activity in PDX models ([2]; 3 mg/KG i.v. 5 consecutive days, every 2 weeks, escalated to 6 and 10 mg/KG, NSGW41 mice): potent antileukemic activity
cell morphology of AML cells (cytospin analysis) ([2]; PDX after onset of AML, FIG. 1K): signs of cellular differentiation
survival and disease penetrance in PDX ([2]; over a period of 100 days, FIG. 1J): improved survival and reduced disease penetrance
